Assay results from patent US6998403B2, “Benzoindoline compounds” (Les Laboratoires Servier, priority 2003, dated 2006).
Marks after values point to notes of the source that are not given here.

How the values were obtained:
[1] = biological target: T1, 5-HT2C receptors (Homo sapiens, UniProt P28335); test: Determination of the affinity for 5-HT2C receptors (competition with [3H]-mesulergine); assay type: binding; conditions: 22° C., pH=7.7, IC50 converted into pKi
T1 sequence (P28335 33-458): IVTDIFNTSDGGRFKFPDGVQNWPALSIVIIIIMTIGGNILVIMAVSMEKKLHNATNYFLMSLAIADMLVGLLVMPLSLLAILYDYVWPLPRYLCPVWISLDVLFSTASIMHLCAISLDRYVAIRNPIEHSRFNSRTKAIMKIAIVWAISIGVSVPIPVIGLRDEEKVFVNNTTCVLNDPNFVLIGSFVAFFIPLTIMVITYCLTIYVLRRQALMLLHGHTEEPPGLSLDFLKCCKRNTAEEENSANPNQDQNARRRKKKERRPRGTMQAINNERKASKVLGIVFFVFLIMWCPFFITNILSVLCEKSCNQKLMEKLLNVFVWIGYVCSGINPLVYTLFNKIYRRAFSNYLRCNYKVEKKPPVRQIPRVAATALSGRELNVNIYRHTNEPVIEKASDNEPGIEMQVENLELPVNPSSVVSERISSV
Procedure: The non-specific fraction is defined in the presence of 1 μM mianserin, the latter also being the reference product for each experiment. At the end of the incubation period, the medium is filtered through GF/B-Unifilter filters pre-treated with PEI (0.1%), followed by washing three times with the incubation buffer. The radioactivity retained on the filters is determined by liquid scintillation counting. The binding isotherms are analysed by non-linear regression in order to determine the IC50 values. They are converted into pKi (where Ki is the dissociation constant).

[2] = test system: extracellular concentrations of NA, DA and ACh in the frontal cortex; test: Measurement of neurotransmitters in the frontal cortex of rats (microdialysis, HPLC); assay type: in vivo, rat; conditions: 10.0 mg/kg s.c.; for ACh, percentage area beneath the curve (%AbC ± S.E.M.): acetylcholine in frontal cortex dialysates of conscious rats; for ACh, percentage area beneath the curve (%AbC ± S.E.M.) / DA, percentage area beneath the curve (%AbC ± S.E.M.) / NA, percentage area beneath the curve (%AbC ± S.E.M.): 20 min. to 120 min. after administration; for DA, percentage area beneath the curve (%AbC ± S.E.M.): dopamine in frontal cortex dialysates of conscious rats; for change in extracellular concentration of ACh (in words) / change in extracellular concentration of DA (in words) / change in extracellular concentration of NA (in words): frontal cortex dialysates of conscious rats; for NA, percentage area beneath the curve (%AbC ± S.E.M.): noradrenaline in frontal cortex dialysates of conscious rats
Procedure: Measurement of Neurotransmitters in the Frontal Cortex of Rats
The surgery is performed under pentobarbital-induced anaesthesia (60 mg/kg, i.p.). Male Wistar rats, 200–220 g (Iffa Credo, Arbresle, France), are placed in a Kopf stereotaxic device and a cannula guide (CMAMicrodialyse AB, Stockholm, Sweden) is implanted in the frontal cortex at the coordinates (in mm): anteroposterior: +2.2, lateral: ±0.6, ventral deviation: −0.2. The rats are placed in separate cages and recover from the anaesthesia over 5 days. On the day of the dialysis, a Cuprophan CMA/11 probe (length: 4 mm; ext. dia.: 0.24 mm) is introduced into the guide and perfused at 1 μl/min. with a solution of NaCl: 147.2 mM; KCl: 4 mM; CaCl2: 2.3 mM adjusted to pH 7.3 with a phosphate buffer. Two hours after implantation, samples of dialysate are collected every 20 minutes for 4 hours. Three baseline samples are collected before administration of the drug.
Noradrenaline (NA) and dopamine (DA) are measured as follows: 20 μl of dialysate sample are diluted with 20 μl of mobile phase (NaH2PO4: 75 mM, EDTA: 20 μM, sodium decanesulphonate: 1 mM, methanol: 17.5%, triethylamine: 0.01%, pH: 5.70) and 33 μl are analysed by HPLC using, for separation, an inverse-phase column (Hypersil C 18, 150×4.6 mm; particle size 5 μm) thermostatically controlled at 43° C. and, for quantification, a coulometric detector (ESA5014, Coulochem II, ESA, Chelmsford, USA). The potential of the first electrode is −90 mV (reduction) and that of the second +280 mV (oxidation). The mobile phase flow rate is 2 ml/min. The sensitivity limit for NA and DA is 0.2 pg.
Acetylcholine (ACh) is measured and quantified in the absence of acetylcholine esterase (AChE) inhibitor 20 μl of dialysate sample are collected in 10 μl of 0.01% acetic acid. 20 μl aliquots are analysed by HPLC. The mobile phase is composed of Na2HPO4: 50 mM and ProClin: 0.5% (BAS, Congleton, UK), pH 8.2. The stationary phase is composed of a cation-exchange column (Sepstik, 530×1.0 mm, particle size 10 μm, BAS), a pre-column (choline oxidase/catalase enzymatic reactor, 55×1 mm, BAS) and a post-column (choline oxidase/AChE enzymatic reactor, 50×1 mm, BAS). The system is maintained at 35° C. Quantification is carried out by means of an amperometric detector (LC-4B, BAS). A layer of peroxidase-redox polymer is deposited on the vitreous carbon working electrode (MF2098, BAS). The potential of that electrode is +100 mV relative to the Ag/AgCl reference electrode. The mobile phase flow rate is 0.14 ml/min. The sensitivity limit for ACh is 0.1 pg.
The levels of NA, DA and ACh are expressed as the percentage area beneath the curve (% AbC) ±S.E.M. of times 20 min. to 120 min. after administration of the drug. The effects of the compound of Example 1 are compared (ANOVA) with those obtained in animals treated with the solvent or with 6-chloro-5-fluoro-N-[4-methoxy-3-(4-methyl-1-piperazinyl)phenyl]-1-indoline-carboxamide.

COc1ccc(NC(=O)N2CCc3cc(F)c(Cl)cc32)cc1N1CCN(C)CC1 [Example 11 of application EP-1170288, 6-chloro-5-fluoro-N-[4-methoxy-3-(4-methyl-1-piperazinyl)phenyl]-1-indolinecarboxamide]
Ki [1]: 39.8 nM
ACh, percentage area beneath the curve (%AbC ± S.E.M.) [2]: +15.1 ± 12.3 %AbC
DA, percentage area beneath the curve (%AbC ± S.E.M.) [2]: +19.5 ± 4.9 %AbC
change in extracellular concentration of ACh (in words) [2]: no change
change in extracellular concentration of DA (in words) [2]: very modest increase
change in extracellular concentration of NA (in words) [2]: very modest increase
NA, percentage area beneath the curve (%AbC ± S.E.M.) [2]: +39.8 ± 6.7 %AbC

COc1ccc(NC(=O)N2CCc3c2ccc2ccccc32)cc1N1CCN(C)CC1.Cl [Example 1, N-[4-Methoxy-3-(4-methyl-1-piperazinyl)phenyl]-1,2-dihydro-3H-benzo[e]indole-3-carboxamide Hydrochloride]
Ki [1]: 6.31 nM
ACh, percentage area beneath the curve (%AbC ± S.E.M.) [2]: +107.7 ± 13.5^a,b %AbC
DA, percentage area beneath the curve (%AbC ± S.E.M.) [2]: +52.9 ± 6.6^a %AbC
change in extracellular concentration of ACh (in words) [2]: substantial increase
change in extracellular concentration of DA (in words) [2]: substantial increase
change in extracellular concentration of NA (in words) [2]: substantial increase
NA, percentage area beneath the curve (%AbC ± S.E.M.) [2]: +105.4 ± 7.3^a,b %AbC
